Consider seven molecules from patent US4165428A, “Indoleacetic acid ester derivatives” (Hisamitsu Pharmaceutical Co., Inc., priority 1976, dated 1979).

The nature of one data set: Acute toxicity (lethal dose). The data set is classed as in vivo. The conditions noted are these: mice, estimated from death 72 hours following administration. The method, then:
Each test compound suspended in 1% tragacanth-saline was administered intraperitoneally or orally to male mice of ddY-strain (body weight 16-24 g). The lethal dose was estimated from the death of animals 72 hours following administration.
Consider `COc1ccc2c(c1)c(CC(=O)OCc1ccccc1C)c(C)n2C(=O)c1ccc(Cl)cc1`, for which the “acute toxicity for oral route (lethal dose)” value (“acute toxicity for oral route” for short) is on record as more than 500 mg/kg.

Regarding `COc1ccc2c(c1)c(CC(=O)OCc1ccccc1F)c(C)n2C(=O)c1ccc(Cl)cc1`, the “acute toxicity for oral route” value is recorded as more than 500 mg/kg.

On to `COc1ccc2c(c1)c(CC(=O)OCc1ccc(F)cc1)c(C)n2C(=O)c1ccc(Cl)cc1`, for which the “acute toxicity for oral route” value is on record as more than 500 mg/kg.

Turning to `COc1ccc2c(c1)c(CC(=O)OCc1cccc(C)c1)c(C)n2C(=O)c1ccc(Cl)cc1`, the “acute toxicity for oral route” value was 200 to 500 mg/kg.

Turning to `COc1ccc2c(c1)c(CC(=O)OCc1ccc(C)cc1)c(C)n2C(=O)c1ccc(Cl)cc1`, the “acute toxicity for oral route” value was 500 mg/kg.

Regarding `COc1ccc2c(c1)c(CC(=O)O)c(C)n2C(=O)c1ccc(Cl)cc1` [indomethacin, reference compound], the “acute toxicity for oral route” value is 10 to 20 mg/kg.

With `COc1ccc2c(c1)c(CC(=O)OCc1cccc(F)c1)c(C)n2C(=O)c1ccc(Cl)cc1`, the “acute toxicity for oral route” value is recorded as more than 500 mg/kg.

A further data set is described as follows: Anti-inflammatory activity for oral route (carrageenin edema of hind paw). The conditions noted are these: 10 mg/kg. The data set is classed as in vivo, male rats of Wistar-strain. The method, then: A group of five male rats of Wistar-strain (body weight 100-150 g) were orally given each test compound suspended in 0.5% tragacanth-saline. After one hour 1.0% carrageenin suspended in the water for injection was injected subcutaneously to a hind paw.
Turning to `COc1ccc2c(c1)c(CC(=O)O)c(C)n2C(=O)c1ccc(Cl)cc1` [indomethacin, reference compound], the “mean percent inhibition of carrageenin edema” value was 41.1%.

The same data set, now with this note: 10mg/kg, percent inhibition divided by that of indomethacin, edema measured after 3 hours.
Regarding `COc1ccc2c(c1)c(CC(=O)OCc1ccccc1F)c(C)n2C(=O)c1ccc(Cl)cc1`, the “anti-inflammatory effect for oral route (relative inhibition versus indomethacin)” value was 0.76.

Consider `COc1ccc2c(c1)c(CC(=O)OCc1ccc(F)cc1)c(C)n2C(=O)c1ccc(Cl)cc1`, for which the “anti-inflammatory effect for oral route (relative inhibition versus indomethacin)” value stood at 0.41.

Regarding `COc1ccc2c(c1)c(CC(=O)OCc1ccc(C)cc1)c(C)n2C(=O)c1ccc(Cl)cc1`, the “anti-inflammatory effect for oral route (relative inhibition versus indomethacin)” value is 1.00.

For `COc1ccc2c(c1)c(CC(=O)O)c(C)n2C(=O)c1ccc(Cl)cc1` [indomethacin, reference compound], the “anti-inflammatory effect for oral route (relative inhibition versus indomethacin)” value is given as 1.0.

On to `COc1ccc2c(c1)c(CC(=O)OCc1cccc(F)c1)c(C)n2C(=O)c1ccc(Cl)cc1`, for which the “anti-inflammatory effect for oral route (relative inhibition versus indomethacin)” value is listed as 0.68.

Another data set can be described thus: Ulcerogenic activity on rat stomach. It counts as in vivo, Male Wistar rats. The conditions noted are these: oral, 20 mg/kg, 18 hours after administration; sum of area of erosion and ulcer. The method, then: Male Wistar rats weighing 200-220 g were fasted for 24 hours. Indomethacin and the test drugs were suspended with 0.5% tragacanth solution, and these suspensions were given the animals orally at each dose of 20 mg/kg. The animals were sacrificed with ether 18 hours after administration. The excised stomachs were filled with 1% formalin solution and the whole were immersed in the 1% formalin solution for fixation. Thereafter, an incision was made parallel to the greater curvature to examine whether or not an erosion or ulcer occurs. The degree of erosion and ulcer was represented by the sum of area (mm^2).
The molecule `COc1ccc2c(c1)c(CC(=O)OCc1ccccc1C)c(C)n2C(=O)c1ccc(Cl)cc1` returned a gastric ulcer index of 0.19 ± 0.13 mm^2.

The molecule `COc1ccc2c(c1)c(CC(=O)OCc1ccccc1F)c(C)n2C(=O)c1ccc(Cl)cc1` registered a gastric ulcer index of 0.50 ± 0.30 mm^2.

`COc1ccc2c(c1)c(CC(=O)OCc1ccc(F)cc1)c(C)n2C(=O)c1ccc(Cl)cc1` gave a gastric ulcer index of 0.13 ± 0.08 mm^2.

For `COc1ccc2c(c1)c(CC(=O)OCc1cccc(C)c1)c(C)n2C(=O)c1ccc(Cl)cc1`, the gastric ulcer index is 0.13 ± 0.08 mm^2.

In turn, `COc1ccc2c(c1)c(CC(=O)OCc1ccc(C)cc1)c(C)n2C(=O)c1ccc(Cl)cc1` had a gastric ulcer index of 0.88 ± 0.39 mm^2.

`COc1ccc2c(c1)c(CC(=O)O)c(C)n2C(=O)c1ccc(Cl)cc1` [indomethacin, reference compound] had a gastric ulcer index of 6.75 ± 1.98 mm^2.

Turning to `COc1ccc2c(c1)c(CC(=O)OCc1cccc(F)c1)c(C)n2C(=O)c1ccc(Cl)cc1`, the gastric ulcer index turned out to be 0.50 ± 0.38 mm^2.
